Measurements: ChEMBL document CHEMBL1158239, “Costaricine, a new antiplasmodial bisbenzylisoquinoline alkaloid from Nectandra salicifolia trunk bark” (J Nat Prod, 1996)
Values after ≈ are worked out from the molar mass of the structure shown.

What follows are compounds tested on Plasmodium falciparum (assay: Antimalarial activity against chloroquine-sensitive Plasmodium falciparum D6 as [3H]hypoxanthine uptake).
Type: functional, organism-based

In order of rising IC50:
1. C[C@@H]1CC[C@H]2[C@@H](C)C(=O)O[C@@H]3O[C@@]4(C)CC[C@@H]1[C@]32OO4 [ARTEMISININ]  0.0041 µg/mL (≈ 0.0145 µM)
2. C=C[C@H]1CN2CC[C@H]1C[C@H]2[C@H](O)c1ccnc2ccc(OC)cc12 [QUININE]  0.0157 µg/mL (≈ 0.0484 µM)
3. COc1cc2c(cc1O)[C@@H](Cc1ccc(Oc3cc(C[C@H]4NCCc5cc(OC)c(O)cc54)ccc3OC)cc1)NCC2 [COSTARICINE]  0.05 µg/mL (≈ 0.0858 µM)
4. COc1cc2c(cc1O)C[C@H]1c3c(cc(OC)c(O)c3-2)CCN1C [ISOBOLDINE]  0.668 µg/mL (≈ 2.04 µM)
5. COc1cc2c(cc1O)C[C@@H]1NCCc3cc(O)c(OC)c-2c31 [NORBOLDINE]  1.24 µg/mL (≈ 3.96 µM)
6. COc1cc2c(cc1OC)-c1c(OC)c(OC)c(OC)c3c1[C@H](C2)NCC3  1.51 µg/mL (≈ 4.07 µM)
7. COc1ccc2c(c1O)-c1c(OC)c(OC)cc3c1[C@H](C2)N(C)CC3 [ISOCORYDINE]  1.9 µg/mL (≈ 5.57 µM)
8. COc1ccc2c(c1O)-c1c(OC)c(OC)cc3c1[C@H](C2)NCC3  1.99 µg/mL (≈ 6.08 µM)
9. COc1cc2c(cc1O)C[C@H]1c3c(cc(O)c(OC)c3-2)CCN1C [BOLDINE]  2.13 µg/mL (≈ 6.51 µM)
10. COc1cc2c(cc1O)[C@H](Cc1ccc(O)cc1)N(C)CC2  2.73 µg/mL (≈ 9.12 µM)
11. COc1cc2c(cc1O)C[C@@H]1NCCc3cc(OC)c(OC)c-2c31 [LAUROTETANINE]  3.9 µg/mL (≈ 11.9 µM)
12. COc1ccc2c(c1O)[C@H](Cc1ccc(O)cc1)N(C)CC2  4.09 µg/mL (≈ 13.7 µM)
13. COc1ccc2c(c1O)[C@H](Cc1ccc(O)cc1)NCC2  4.1 µg/mL (≈ 14.4 µM)
14. COc1ccc(C[C@H]2c3cc(O)c(OC)cc3CCN2C)cc1O [(S)-RETICULINE]  5.8 µg/mL (≈ 17.6 µM)
15. COc1cc2c(cc1OC)[C@]13CCN(C)[C@@H](C2)[C@@H]1CC(=O)C(OC)C3 (some centres not stated)  7.1 µg/mL (≈ 20.6 µM)
16. COc1cc2c(cc1O)C[C@H]1c3c(cc(OC)c(OC)c3-2)CCN1C  7.15 µg/mL (≈ 20.9 µM)

The compounds below were run on Plasmodium falciparum (assay: Antimalarial activity against chloroquine-resistant Plasmodium falciparum W2 as [3H]hypoxanthine uptake).
Type: functional, organism-based

In order of falling IC50:
1. COc1cc2c(cc1OC)[C@]13CCN(C)[C@@H](C2)[C@@H]1CC(=O)C(OC)C3 (some centres not stated)  9.02 µg/mL (≈ 26.1 µM)
2. COc1ccc2c(c1O)[C@H](Cc1ccc(O)cc1)N(C)CC2  4.48 µg/mL (≈ 15 µM)
3. COc1cc2c(cc1O)[C@H](Cc1ccc(O)cc1)N(C)CC2  3.81 µg/mL (≈ 12.7 µM)
4. COc1ccc(C[C@H]2c3cc(O)c(OC)cc3CCN2C)cc1O [(S)-RETICULINE]  3.65 µg/mL (≈ 11.1 µM)
5. COc1ccc2c(c1O)[C@H](Cc1ccc(O)cc1)NCC2  3.1 µg/mL (≈ 10.9 µM)
6. COc1ccc2c(c1O)-c1c(OC)c(OC)cc3c1[C@H](C2)N(C)CC3 [ISOCORYDINE]  2.83 µg/mL (≈ 8.29 µM)
7. COc1cc2c(cc1O)C[C@H]1c3c(cc(OC)c(OC)c3-2)CCN1C  2.7 µg/mL (≈ 7.91 µM)
8. COc1cc2c(cc1O)C[C@@H]1NCCc3cc(OC)c(OC)c-2c31 [LAUROTETANINE]  2.53 µg/mL (≈ 7.73 µM)
9. COc1ccc2c(c1O)-c1c(OC)c(OC)cc3c1[C@H](C2)NCC3  1.9 µg/mL (≈ 5.8 µM)
10. COc1cc2c(cc1OC)-c1c(OC)c(OC)c(OC)c3c1[C@H](C2)NCC3  1.75 µg/mL (≈ 4.71 µM)
11. COc1cc2c(cc1O)C[C@@H]1NCCc3cc(O)c(OC)c-2c31 [NORBOLDINE]  1.68 µg/mL (≈ 5.36 µM)
12. COc1cc2c(cc1O)C[C@H]1c3c(cc(O)c(OC)c3-2)CCN1C [BOLDINE]  1.47 µg/mL (≈ 4.49 µM)
13. COc1cc2c(cc1O)C[C@H]1c3c(cc(OC)c(O)c3-2)CCN1C [ISOBOLDINE]  0.904 µg/mL (≈ 2.76 µM)
14. COc1cc2c(cc1O)[C@@H](Cc1ccc(Oc3cc(C[C@H]4NCCc5cc(OC)c(O)cc54)ccc3OC)cc1)NCC2 [COSTARICINE]  0.294 µg/mL (≈ 0.505 µM)
15. C=C[C@H]1CN2CC[C@H]1C[C@H]2[C@H](O)c1ccnc2ccc(OC)cc12 [QUININE]  0.0388 µg/mL (≈ 0.12 µM)
16. C[C@@H]1CC[C@H]2[C@@H](C)C(=O)O[C@@H]3O[C@@]4(C)CC[C@@H]1[C@]32OO4 [ARTEMISININ]  0.0022 µg/mL (≈ 0.00779 µM)
